# Measurements as given in the Kinase Knowledgebase extract (Sharma et al. 2016).
# Biological target: PIK3CG (UniProt P48736)
# Test: Inhibition of PIK3CG Kinase Activity
# Sequence of PIK3CG (P48736 whole entry, looked up): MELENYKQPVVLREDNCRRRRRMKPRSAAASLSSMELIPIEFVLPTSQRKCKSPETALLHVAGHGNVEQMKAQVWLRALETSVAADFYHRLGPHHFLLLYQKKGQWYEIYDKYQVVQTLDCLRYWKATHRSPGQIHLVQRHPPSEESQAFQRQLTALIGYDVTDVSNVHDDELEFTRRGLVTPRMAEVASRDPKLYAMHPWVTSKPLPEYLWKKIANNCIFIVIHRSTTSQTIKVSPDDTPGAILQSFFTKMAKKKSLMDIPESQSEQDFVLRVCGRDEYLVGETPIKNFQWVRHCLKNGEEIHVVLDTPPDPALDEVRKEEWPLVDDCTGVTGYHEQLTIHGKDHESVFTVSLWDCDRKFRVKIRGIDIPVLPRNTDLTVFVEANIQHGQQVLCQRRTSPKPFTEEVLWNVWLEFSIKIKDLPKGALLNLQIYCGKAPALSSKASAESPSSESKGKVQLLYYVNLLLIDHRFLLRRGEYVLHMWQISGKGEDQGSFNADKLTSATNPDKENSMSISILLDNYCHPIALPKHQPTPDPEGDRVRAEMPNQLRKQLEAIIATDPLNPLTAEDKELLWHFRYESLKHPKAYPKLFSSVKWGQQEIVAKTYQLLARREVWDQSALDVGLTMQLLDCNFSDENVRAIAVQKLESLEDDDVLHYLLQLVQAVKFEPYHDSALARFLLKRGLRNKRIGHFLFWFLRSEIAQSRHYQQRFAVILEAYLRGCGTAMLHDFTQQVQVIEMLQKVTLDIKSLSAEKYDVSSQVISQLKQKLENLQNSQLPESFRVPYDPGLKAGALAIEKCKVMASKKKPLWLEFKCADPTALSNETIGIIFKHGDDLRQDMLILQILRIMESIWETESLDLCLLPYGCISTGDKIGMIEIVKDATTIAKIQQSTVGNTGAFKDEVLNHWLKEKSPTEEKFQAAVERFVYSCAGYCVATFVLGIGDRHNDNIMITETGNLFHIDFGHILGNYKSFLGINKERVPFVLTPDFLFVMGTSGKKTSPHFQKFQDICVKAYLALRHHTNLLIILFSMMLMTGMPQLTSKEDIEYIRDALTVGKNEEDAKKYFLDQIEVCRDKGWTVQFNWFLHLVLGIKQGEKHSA
row,SMILES,IC50 [nM]
1,COc1cc(NC(=O)N2CCCOc3ccc(/C=C4\SC(=S)NC4=O)cc32)cc(OC)c1,1320
2,N#Cc1ccc(C(=O)N2CCCOc3ccc(/C=C4\SC(=S)NC4=O)cc32)cc1,2610
3,O=C1NC(=S)S/C1=C\c1ccc2c(c1)N(C(=O)Cc1cccs1)CCCO2,1140
4,O=C1NC(=S)S/C1=C\c1ccc2c(c1)N(C(=O)c1ccc3c(c1)C(=O)c1ccccc1C3=O)CCCO2,4990
5,Cc1ccc(OC(=O)N2CCCOc3ccc(/C=C4\SC(=S)NC4=O)cc32)cc1,704
6,O=C1NC(=S)S/C1=C\c1ccc2c(c1)N(C(=O)c1ccc(Cl)c(Cl)c1)CCCO2,1380
7,O=C1NC(=S)S/C1=C\c1ccc2c(c1)N(C(=O)/C=C/c1cccc(C(F)(F)F)c1)CCCO2,4010
8,O=C1NC(=S)S/C1=C\c1ccc2c(c1)N(C(=O)/C=C/c1ccccc1)CCCO2,1520
9,O=C1NC(=S)S/C1=C\c1ccc2c(c1)N(C(=O)C1CCCC1)CCCO2,1000
10,O=C1NC(=S)S/C1=C\c1ccc2c(c1)N(C(=O)COCc1ccccc1)CCCO2,1650
11,O=C1NC(=S)S/C1=C\c1ccc2c(c1)N(C(=O)c1ccc3occc3c1)CCCO2,1530
12,CCCCCCc1ccc(C(=O)N2CCCOc3ccc(/C=C4\SC(=S)NC4=O)cc32)cc1,4200
13,Cc1ccc(NC(=O)N2CCCOc3ccc(/C=C4\SC(=S)NC4=O)cc32)cc1,3500
14,Cc1oc(C(C)(C)C)cc1C(=O)N1CCCOc2ccc(/C=C3\SC(=S)NC3=O)cc21,4600

# These reach a lower IC50. Values come first.
row,IC50 [nM],SMILES
1,65,O=C1NC(=S)S/C1=C\c1ccc2c(c1)N(C(=O)c1ccco1)CCO2
2,14,COc1cc(NC(=O)N2CCOc3ccc(/C=C4\SC(=S)NC4=O)cc32)cc(OC)c1
3,640,CC(=O)Oc1ccc(OC(=O)N2CCCOc3ccc(/C=C4\SC(=S)NC4=O)cc32)cc1
4,115,O=C1NC(=S)S/C1=C\c1ccc2c(c1)N(C(=O)C1CC1)CCCO2
5,650,Cc1cc(C)cc(CN2CCOc3ccc(/C=C4\SC(=S)NC4=O)cc32)c1
6,424,O=C1NC(=S)S/C1=C\c1ccc2c(c1)N(C(=O)Oc1ccccc1)CCCO2
7,330,CC1(C)C2CCC1(CS(=O)(=O)N1CCOc3ccc(/C=C4\SC(=S)NC4=O)cc31)CC2
8,115,CN1CCN(Cc2ccccc2C(=O)N2CCOc3ccc(/C=C4\SC(=S)NC4=O)cc32)CC1
